# Data: PubChem BioAssay AID2060904 (Molecular Pharmacology Branch, DTP, NCI, 2025)
# System: 349418-098-R-PDC complex spheroid viability
# Test: Anticancer human tumor 349418-098-R-PDC patient-derived lung adenocarcinoma cell line growth inhibition [RAS]
# Details: for IC50: curve of first compound; for viability, T/C: stronger effect = lower value
# From the text: RAS pathway inhibitors in Combinations in Complex Spheroids
# A high-throughput screen of multi-cell type tumor spheroids was designed to identify active combinations of RAS pathway inhibitors and targeted small molecules. Complex spheroids include a stromal component modeled by human endothelial cells (HUVEC) and fibroblasts modeled by human mesenchymal stem cells (MSCs). The concentration ranges selected for each drug and investigational agent were based upon clinically achievable concentrations if the clinical Cmax of the agent was known.
# Compounds. The drugs and investigational agents: abemaciclib (NSC768073), cobimetinib (NSC768068), divarasib (GDC6063, NSC841802), docetaxel (NSC628503), GDC-1971 (RLY-1971, NSC841576), gemcitabine (NSC613327), inavolisib (NSC800729), ipatasertib (NSC767898), KB-0742 (NSC834161), MRTX-1133 (NSC836407), osimertinib (NSC779217), RMC-4630 (NSC839698), RMC-6236 (NSC851965), RMC-6291 (NSC852671), Ro-3306 (NSC812927), sapanisertib (NSC764658), SN-38 (NSC673596), staurosporine (NSC755774), SY5609 (NSC837396), and tovorafenib (DAY101, NSC766906), were obtained from the National Cancer Institute (NCI) Developmental Therapeutics Program Chemical Repository. The FDA-approved anticancer drug set is available from the NCI Developmental Therapeutics Program. […] The stock solutions were prepared in dimethyl sulfoxide (DMSO, Sigma-Aldrich, St. Louis, MO, cat. D2650) at 800-fold the tested concentration and stored at -70 degrees C prior to their use. All drugs and investigational agents were tested over a range starting from a high concentration at or near the clinical Cmax and decreasing in half-log increments. If the clinical Cmax for an agent had not been determined, the highest concentration tested was 10 microM.
# Cell Culture. All cells were maintained in an incubator at 37 degrees C and 5% CO2 with 95% humidity. The PDC lines were cultured according to standard operating procedures established by the NCI PDMR. All PDCs were thawed and cultured in Matrigel-coated flasks prepared with a working solution of 1X Ham's F-12 nutrient mix, without supplementation (Invitrogen, Waltham, MA, cat. 11765054), 100 U/mL penicillin-streptomycin (Invitrogen, cat. 15140122), and 2.5% Matrigel (Corning Inc., Corning, NY, cat. 354248) for the first three passages. The 362531-283-R-J2-PDC and 782815-120-R-J1-PDC lines were cultured in 6C/Colon 1B media, which includes advanced DMEM/F-12 (Thermo Fisher Scientific, cat. 12634028), 10 mM HEPES (Thermo Fisher Scientific, cat. 15630080), 1X GlutaMAX supplement (Thermo Fisher Scientific, cat. 35050061), 0.1 mg/mL primocin (InvivoGen, San Diego, CA, cat. ant-pm-2), 10% defined fetal bovine serum, heat inactivated (HyClone Laboratories Inc., Logan, UT, cat. SH30070.03HI), 50% L-WRN conditioned media (ATCC, cat. CRL-3276), 1.25 mM N-Acetyl-L-cysteine (Sigma-Aldrich, cat. A9165), 10 mM nicotinamide (Sigma-Aldrich, cat. N0636), 1X B-27 supplement (Thermo Fisher Scientific, cat. 17504044), 1X N-2 supplement (Thermo Fisher Scientific, cat. 17502048), 50 ng/mL human EGF (Thermo Fisher Scientific, cat. PHG0311), and 10 microM Y-27632 dihydrochloride (Tocris Bioscience, cat. 1254). The K12877-001-R-J1-PDC line was cultured in 6I media, which includes all 6C/Colon 1B media plus 10 ng/mL human FGF-10 (PeproTech, cat. 100-26), 1 ng/mL human FGF-2 (PeproTech, cat. 100-18B), 1 µM prostaglandin E2 (Tocris Bioscience, cat. 2296), […] hydrocortisone (Sigma-Aldrich, cat. H4001), and […] bovine insulin (Sigma-Aldrich, cat. I6634). The K86415-001-R-J1-PDC line was cultured in 6D media, which includes all 6C/Colon 1B media components minus the L-WRN conditioned media. The 485176-168-R4-J1-PDC was cultured in PANC media, which includes all 6C/Colon 1B media plus 100 ng/mL human FGF-10 (PeproTech, cat. 100-26), 500 nM SB-431542 (Selleckchem, cat. S1067), and 10 nM gastrin (Tocris Bioscience, cat. 3006). […]
# 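Also: spheroids exposed to compound for seven days before viability readout.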
smiles,measurement,setting,value
CC1(O)CCCC1n1c(=O)c(C(F)F)cc2cnc(NC3CCN(S(C)(=O)=O)CC3)nc21 (configuration not stated) + C#Cc1c(F)ccc2cc(O)cc(-c3ncc4c(N5CC6CCC(C5)N6)nc(OCC56CCCN5CC(F)C6)nc4c3F)c12,IC50,second compound 0.0316 µM,0.066 µM
same,IC50,second compound 0.1 µM,0.0809 µM
same,IC50,second compound 0.316 µM,0.0863 µM
same,IC50,second compound 1 µM,0.0528 µM
same,IC50,second compound 3.16 µM,0.0793 µM
same,IC50,second compound 10 µM,< 0.0316 µM
same,"viability, T/C","second compound 0.0316 µM, first compound 0.0316 µM",62.5%
same,"viability, T/C","second compound 0.0316 µM, first compound 0.1 µM",43.8%
same,"viability, T/C","second compound 0.0316 µM, first compound 0.316 µM",23%
same,"viability, T/C","second compound 0.0316 µM, first compound 1 µM",27.6%
same,"viability, T/C","second compound 0.0316 µM, first compound 3.16 µM",23.2%
same,"viability, T/C","second compound 0.0316 µM, first compound 10 µM",3.27%
same,"viability, T/C","second compound 0.1 µM, first compound 0.0316 µM",83.5%
same,"viability, T/C","second compound 0.1 µM, first compound 0.1 µM",41.3%
same,"viability, T/C","second compound 0.1 µM, first compound 0.316 µM",23.1%
same,"viability, T/C","second compound 0.1 µM, first compound 1 µM",16.2%
same,"viability, T/C","second compound 0.1 µM, first compound 3.16 µM",18.7%
same,"viability, T/C","second compound 0.1 µM, first compound 10 µM",3.67%
same,"viability, T/C","second compound 0.316 µM, first compound 0.0316 µM",84.5%
same,"viability, T/C","second compound 0.316 µM, first compound 0.1 µM",41.7%
same,"viability, T/C","second compound 0.316 µM, first compound 0.316 µM",25.2%
same,"viability, T/C","second compound 0.316 µM, first compound 1 µM",25.8%
same,"viability, T/C","second compound 0.316 µM, first compound 3.16 µM",20.1%
same,"viability, T/C","second compound 0.316 µM, first compound 10 µM",3.12%
same,"viability, T/C","second compound 1 µM, first compound 0.0316 µM",60.5%
same,"viability, T/C","second compound 1 µM, first compound 0.1 µM",35.9%
same,"viability, T/C","second compound 1 µM, first compound 0.316 µM",28.9%
same,"viability, T/C","second compound 1 µM, first compound 1 µM",26.5%
same,"viability, T/C","second compound 1 µM, first compound 3.16 µM",19.9%
same,"viability, T/C","second compound 1 µM, first compound 10 µM",4.34%
same,"viability, T/C","second compound 3.16 µM, first compound 0.0316 µM",67.6%
same,"viability, T/C","second compound 3.16 µM, first compound 0.1 µM",41.9%
same,"viability, T/C","second compound 3.16 µM, first compound 0.316 µM",29.9%
same,"viability, T/C","second compound 3.16 µM, first compound 1 µM",25%
same,"viability, T/C","second compound 3.16 µM, first compound 3.16 µM",25.5%
same,"viability, T/C","second compound 3.16 µM, first compound 10 µM",4.16%
same,"viability, T/C","second compound 10 µM, first compound 0.0316 µM",49.8%
same,"viability, T/C","second compound 10 µM, first compound 0.1 µM",12.9%
same,"viability, T/C","second compound 10 µM, first compound 0.316 µM",16.3%
same,"viability, T/C","second compound 10 µM, first compound 1 µM",14.4%
same,"viability, T/C","second compound 10 µM, first compound 3.16 µM",9.5%
same,"viability, T/C","second compound 10 µM, first compound 10 µM",1.44%
